Consider 6 compounds from US8680012B2, “4-phenyl-pyrane-3,5-diones,4-phenyl-thiopyrane-3,6-diones and cyclohexanetriones as novel herbicides” (Syngenta Crop Protection LLC, priority 2006, dated 2014).

Format in all cases: in vivo
The subject of experiment [1] is Setaria faberi (SETFA). The experiment can be described thus: Example B pre-emergence herbicidal activity, glasshouse pot test. To be noted: 312 h, rate 250 g/ha, evaluated after 13 days, read-out: Pre-emergence activity SETFA (100=total damage to plant; 0=no damage to plant). How it is done:
(§1) Seeds of a variety of test species were sown in standard soil in pots. After cultivation for one day (pre-emergence) or after 8 days cultivation (post-emergence) under controlled conditions in a glasshouse (at 24/16° C., day/night; 14 hours light; 65% humidity), the plants were sprayed with an aqueous spray solution derived from the formulation of the technical active ingredient in acetone/water (50:50) solution containing 0.5% Tween 20 (polyoxyethelyene sorbitan monolaurate, CAS RN 9005-64-5). The test plants were then grown in a glasshouse under controlled conditions in a glasshouse (at 24/16° C., day/night; 14 hours light; 65% humidity) and watered twice daily. After 13 days for pre and post-emergence, the test was evaluated (100=total damage to plant; 0=no damage to plant).
(§2) Alopecurus myosuroides (ALOMY), Avena fatua (AVEFA), Setaria faberi (SETFA), Echinochloa crus-galli (ECHCG), Solanum nigrum (SOLNI) and Amaranthus retroflexus (AMARE)

In experiment [2] the test system is Alopecurus myosuroides (ALOMY). Described as above. Particulars: 312 h, rate 250 g/ha, evaluated after 13 days, read-out: Pre-emergence activity ALOMY (100=total damage to plant; 0=no damage to plant). Here is the method: as §1, §2
The subject of experiment [3] is Avena fatua (AVEFA). The description is as above. To be noted: 312 h, rate 250 g/ha, evaluated after 13 days, read-out: Pre-emergence activity AVEFA (100=total damage to plant; 0=no damage to plant). How it is done:
as §1, §2

In experiment [4] the test system is Amaranthus retroflexus (AMARE). Described as above. Particulars: 312 h, rate 250 g/ha, evaluated after 13 days, read-out: Pre-emergence activity AMARE (100=total damage to plant; 0=no damage to plant). How it is done: as §1, §2
Experiment [5] has as its system Echinochloa crus-galli (ECHCG). The experiment is described as above. Particulars: 312 h, rate 250 g/ha, evaluated after 13 days, read-out: Pre-emergence activity ECHCG (100=total damage to plant; 0=no damage to plant). How it is done:
as §1, §2

Experiment [6] has as its system Setaria faberi (SETFA). The experiment in a line: Example B post-emergence herbicidal activity, glasshouse pot test. To be noted: 312 h, rate 250 g/ha, evaluated after 13 days, read-out: Post-emergence activity SETFA (100=total damage to plant; 0=no damage to plant). How it is done: as §1, §2
Experiment [7] relates to Alopecurus myosuroides (ALOMY). The experiment is described as above. Particulars: 312 h, rate 250 g/ha, evaluated after 13 days, read-out: Post-emergence activity ALOMY (100=total damage to plant; 0=no damage to plant). Here is the method:
as §1, §2

Experiment [8] deals with Avena fatua (AVEFA). Described as above. To be noted: 312 h, rate 250 g/ha, evaluated after 13 days, read-out: Post-emergence activity AVEFA (100=total damage to plant; 0=no damage to plant). Here is the method: as §1, §2
Experiment [9] relates to Amaranthus retroflexus (AMARE). The description is as above. To be noted: 312 h, rate 250 g/ha, evaluated after 13 days, read-out: Post-emergence activity AMARE (100=total damage to plant; 0=no damage to plant). Here is the method: as §1, §2
Experiment [10] relates to Echinochloa crus-galli (ECHCG). Described as above. Particulars: 312 h, rate 250 g/ha, evaluated after 13 days, read-out: Post-emergence activity ECHCG (100=total damage to plant; 0=no damage to plant). How it is done: as §1, §2

As for `CCc1ccc(-c2ccc(Cl)c(F)c2)cc1C1=C(O)[C@@]2(C)CC[C@H](O2)C1=O` (single isomer, unassigned) [Compound A-125], the pest or weed control at 250 g/ha is 100% with Setaria faberi (SETFA) [1]; 70% in experiment [2]; 80% in the experiment with Avena fatua (AVEFA) [3]; 0% in experiment [4]; 90% in experiment [5]; 100% with Setaria faberi (SETFA) [6]. The pest or weed control at 250 g/ha in [7] worked out at 100%; in the experiment on Avena fatua (AVEFA) [8] it was 90%; in experiment [9] it was 0%; in experiment [10] it was 100%.
`CC[C@]12CC[C@H](O1)C(=O)C(c1cc(-c3ccc(Cl)cc3)ccc1C)=C2O` (single isomer, unassigned) [Compound A-80]: the pest or weed control at 250 g/ha was 70% with Setaria faberi (SETFA) [1]; 30% in experiment [2]; 0% in the experiment on Avena fatua (AVEFA) [3]; 0% in experiment [4]; 40% in experiment [5]; 90% with Setaria faberi (SETFA) [6]. The pest or weed control at 250 g/ha came to 30% in [7], 0% in the experiment with Avena fatua (AVEFA) [8], 0% in experiment [9] and 100% in experiment [10].
Regarding `CC(=O)OC1=C(c2cc(-c3ccc(Cl)cn3)ccc2C)C(=O)C(C)(C)OC1(C)C` [Compound D-28], the pest or weed control at 250 g/ha was 80% with Setaria faberi (SETFA) [1]; 30% in experiment [2]; 40% in the experiment with Avena fatua (AVEFA) [3]; 0% in experiment [4]; 20% in [5]; 80% in the experiment on Setaria faberi (SETFA) [6]. The pest or weed control at 250 g/ha in [7] is 80%; in the experiment on Avena fatua (AVEFA) [8], 50%; in experiment [9], 0%; in experiment [10], 90%.
Take `Cc1cc(C)c(-c2ccc(Cl)c(F)c2)c(C)c1C1=C(O)C(C)(C)OC(C)(C)C1=O` [Compound A-97]: the pest or weed control at 250 g/ha in the experiment with Setaria faberi (SETFA) [1] is 60%; in experiment [2], 0%; in the experiment on Avena fatua (AVEFA) [3], 0%; in experiment [4] it was 0%; in experiment [5], 50%; in the experiment with Setaria faberi (SETFA) [6], 70%. Besides, the pest or weed control at 250 g/ha in [7] is 40%; in the experiment with Avena fatua (AVEFA) [8], 30%; in [9], 0%; in [10] it was 90%.
Regarding `CC1(C)OC(C)(C)C(O)=C(c2cc(-c3ccc(Cl)cc3)ccc2Cl)C1=O` [Compound A-142], the pest or weed control at 250 g/ha in the experiment on Setaria faberi (SETFA) [1] was found to be 100%; in [2], 60%; with Avena fatua (AVEFA) [3], 70%; in experiment [4] it was 0%; in experiment [5], 70%; in the experiment with Setaria faberi (SETFA) [6], 80%. In addition, the pest or weed control at 250 g/ha turned out to be 100% in experiment [7], 80% in the experiment with Avena fatua (AVEFA) [8], 0% in [9] and 100% in experiment [10].
Regarding `CCOC[C@]12CC[C@H](O1)C(=O)C(c1cc(-c3ccc(Cl)cc3)ccc1CC)=C2O` (single isomer, unassigned) [Compound A-124], the pest or weed control at 250 g/ha is 100% in the experiment on Setaria faberi (SETFA) [1]; 50% in experiment [2]; 60% in the experiment with Avena fatua (AVEFA) [3]; 0% in experiment [4]; 70% in experiment [5]; 100% in the experiment on Setaria faberi (SETFA) [6]. The pest or weed control at 250 g/ha in experiment [7] is 80%; in the experiment on Avena fatua (AVEFA) [8], 90%; in [9], 20%; in experiment [10], 100%.
